Experimental findings from patent publication US20100160339A1, “TREATING PANCREATITIS” (MAYO FOUNDATION FOR MEDICAL EDUCATION AND RESEARCH, priority 2007, published 2010) are described below.

“Also recorded” adds a separate entry of the source.

One assay has as its system Src. Briefly: Cortactin tyrosine phosphorylation in pancreatic acini suprastimulated with 10 nM CCK (immunoprecipitation, 4G10 western blot). The class given is cell-based, mice. Here is the method:
(§1) Acini were harvested in a buffer containing 20 mM HEPES (pH 7.4), 120 mM NaCl, 5 mM KCl, 1 mM MgCl2, 1 mM CaCl2, 10 mM glucose, 10 mM sodium pyruvate, 0.1% bovine serum albumin, and 0.01% soybean trypsin inhibitor with 100 units/mL collagenase, as described elsewhere (Torgerson and McNiven, J. […] Viability prior to use was >95% by trypan blue exclusion. The harvested acini were used as described elsewhere (Torgerson and McNiven, J. Cell Sci., 111 (Pt. 19):2911-22 (1998)).
(§2) Acini or tissue were homogenized in a buffer containing 50 mM Tris (pH 7.2), 150 mM NaCl, 0.5 mM EDTA, 1 mM EGTA, 2 mM DTT, 1 mM sodium orthovanadate, 25 mM NaF, and 1% NP-40, using a protease inhibitor cocktail (Complete; Cat. # 1873580; Roche) to prevent proteolysis. […] After Western blotting using appropriate protocols and dilutions of antibodies ( 1/100000 for AB3, 1/1000 for 4G10, 1/500 for SC-18, 1/1000 for PY416, 1/5000 for Yes, 1/200 for H-12 (c-Src), 1/200 for fyn, and 1/200 for Lyn) as recommended by the manufacturer, band intensity was quantified using Adobe Photoshop 6.0, and backgrounds were subtracted for the appropriate lanes. […] Quantification was performed from two or more experiments. […]
For orientation: In western blotting, separated proteins are transferred to a membrane and probed.

The test system of assay [1] is pancreatic acini. Briefly: Basal relocation of cortactin and actin in suprastimulated acini (immunofluorescence). Particulars: 10 nM CCK. The class given is cell-based, mice. The procedure: as §1
(§3) Acini were plated on plain glass coverslips as described elsewhere (Torgerson and McNiven, J. Cell Sci., 111 (Pt. 19):2911-22 (1998)), fixed with 2% paraformaldehyde, and permeabilized with 0.6% Triton X-100. The acini were then blocked with 5% normal goat serum followed by incubation with the primary antibodies (4F11 diluted 1/1000, SC-18 diluted 1/300, or anti-Yes diluted 1/1000) for one hour at room temperature followed by washing and incubation with secondary antibodies ( 1/500) with or without rhodamine phalloidin (100 nM) for 30 minutes. The acini were then washed and mounted using Prolong gold. Acini with 6-12 cells were randomly chosen for imaging. The number of blebs was counted along with the number of cells, and expressed as bleb number per 100 cells. The final number expressed as mean±SEM was from at least three different experiments. […]

Assay [2] concerns pancreatic acini. Briefly: Suprastimulation-induced blebbing of acini (bleb number per 100 cells). The class given is cell-based, mice. Particulars: 10 nM CCK, 94.2±4.1% without inhibitor, mean±SEM. The procedure: as §1, §3
A further assay concerns Src-cortactin complex. Briefly: Dissociation of the Src-cortactin complex after 10 nM CCK (Src immunoprecipitation, blot for cortactin). The format is cell-based, mice. Particulars: 2 minutes, PP2 pre-incubation. Here is the method:
Acini were harvested in a buffer containing 20 mM HEPES (pH 7.4), 120 mM NaCl, 5 mM KCl, 1 mM MgCl2, 1 mM CaCl2, 10 mM glucose, 10 mM sodium pyruvate, 0.1% bovine serum albumin, and 0.01% soybean trypsin inhibitor with 100 units/mL collagenase, as described elsewhere (Torgerson and McNiven, J. Cell Sci., 111 (Pt. 19):2911-22 (1998)) were filtered through a 70 μm mesh and kept at 37° C. for two hours before use during which time these were pre-incubated with 20 μM of inhibitors (PP2 or SU6656), if necessary. Viability prior to use was >95% by trypan blue exclusion. The harvested acini were used as described elsewhere (Torgerson and McNiven, J. Cell Sci., 111 (Pt. 19):2911-22 (1998)).
as §2

Assay [3] concerns suprastimulation-induced pancreatitis. Briefly: Caerulein-induced pancreatitis in vivo. Also on record: species or system mice. The source says: Male 100-120 gm Sprauge Dawley (Harlan Laboratories, Indianapolis, Ind.) mice that were housed and fed under standard conditions were used. Caerulein, the CCK analog, was obtained from Research Plus (Bayonne, N.J.). Antibodies to phosphotyrosine (4G10) and cortactin (4F11) antibodies were obtained from Upstate (Charlottesville, Va.). Pan Src antibody (SC-18), Fyn (SC-16) and c-Src antibody H-12 were obtained from Santa Cruz (Santa Cruz, Calif.), and active Src (PY416), Yes and Lyn antibodies were obtained from Transduction Labs (Lexington, Ky.). Polyclonal antibody to cortactin (AB3) was produced as described elsewhere (Cao et al., Mol. Cell Biol., 23(6):2162-2170 (2003)). Secondary antibodies for immunofluorescence (Alexa 488 and Alexa 594) and Prolong gold were obtained from Invitrogen Corporation (Carlsbad, Calif.). Secondary antibodies for western blotting (goat anti-rabbit and goat anti-mouse HRP) were obtained from Affinity Bioreagents (Golden, Colo.). Collagenase type IV was obtained from Worthington Biochemical Corporation (Lakewood, N.J.). PP2 and SU6656 were obtained from Calbiochem (San Diego, Calif.) and were dissolved as a 1000× stock in DMSO. All other reagents were purchased from Sigma.
Animals (6 animals in each group) were given a single intraperitoneal injection of saline (control) or caerulein (20 μg/kg) in saline as described elsewhere (Bhagat et al., Gastroenterology, 122(1): 156-165 (2002)). After 6 hours, blood and tissue samples were harvested and frozen or fixed in 4% formaldehyde. When used, PP2 was dissolved in DMSO and given at a dose of 3 mg/kg in a 0.1-mL volume intraperitoneally 30 minutes before caerulein. Animals pretreated with vehicle were given DMSO only.
Five μm sections of paraffin-embedded pancreas and lung were stained with hematoxylin/eosin (H&E). For immunohistochemistry of pancreas, 5 μm sections were made from OCT embedded tissue, fixed with 4% paraformaldehyde, and immunostained as described herein. Serum amylase activity was measured colorimetrically using the Phadebas assay (Pharmacia Diagnostics, Portage, Mich.). Edema was measured by subtracting the dry weight from the wet weight and presented as a percentage of wet weight.
The results reported represent the mean±SEM of values obtained from three or more experiments and compared using Student's t test when the data consisted of only two groups or ANOVA when comparing three or more groups. If ANOVA indicated a significant difference, the data were analyzed by using Tukey's method as a post-hoc test for the difference between groups. A p value of 0.05 was considered significant.

For the compound `CN(C)S(=O)(=O)c1ccc2c(c1)/C(=C/c1cc3c([nH]1)CCCC3)C(=O)N2` [SU6656], in the assay with Src (acini pre-incubated with SU6656 at 10 μM), the cortactin phosphorylation result is “completely prevented cortactin phosphorylation”. The “basal relocation of cortactin and actin” value with pancreatic acini [1] (SU6656 10 μM) is “prevented the basal relocation of cortactin”. In the assay with pancreatic acini [2] (SU6656 10 μM), the blebbing came out at 21.0±6.0%.
On to `CC(C)(C)n1nc(-c2ccc(Cl)cc2)c2c(N)ncnc21` [PP2], for which the “dissociation of the Src-cortactin complex” value in the assay with Src-cortactin complex was “prevented”. In addition, the cortactin phosphorylation entry in the assay with Src (acini pre-incubated with PP2 at 20 μM) is reported as “completely prevented cortactin phosphorylation”. In addition, the “cortactin phosphorylation in pancreas in vivo” value in assay [3] (3 mg/kg PP2 intraperitoneally 30 minutes before 20 μg/kg caerulein, preliminary data) is reported as “adequate to inhibit cortactin phosphorylation”. For the same compound, the “increase in serum amylase over controls” value in assay [3] (PP2 3 mg/kg ip 30 minutes before caerulein 20 μg/kg, 6 hours, CER+Veh 4.8±0.5 fold, p <0.02) was 2.4±0.2 fold. The “pancreatic edema as measured by water content” value in assay [3] (PP2 3 mg/kg ip 30 minutes before caerulein 20 μg/kg, 6 hours, CER+Veh 81.1±0.8%, control 75.1±0.5%, p<0.05) amounted to 76.7±0.6%. Also, the “morphology of the pancreas (vacuolation, blebbing-like fragmentation, apoptosis, interstitial edema, inflammatory cells; H&E)” value in assay [3] (PP2 3 mg/kg ip 30 minutes before caerulein, 6 hours) is given as “dramatically prevented these phenomena”. Besides, the “basolateral relocation of actin and cortactin in pancreas cryosections” value in assay [3] (PP2 3 mg/kg prophylactically) is recorded as “prevented this basolateral relocation”. Moreover, the “basal relocation of cortactin and actin” value in the assay on pancreatic acini [1] (PP2 20 μM) was “prevented this basal relocation of cortactin; also recorded: prevented the basal relocation of cortactin”. In the assay with pancreatic acini [2] (PP2 20 μM), this compound showed a blebbing of 16.9±6.0%.
